Consider nine molecules from US8206970B2, “Production of 2-butanol and 2-butanone employing aminobutanol phosphate phospholyase” (Butamax(TM) Advanced Biofuels LLC, priority 2006, dated 2012).

Test [1] relates to Erwinia amino alcohol O-phosphate lyase. As to the kind of experiment: activity of amino alcohol O-phosphate lyase towards aminobutanol O-phosphate and stereoisomers (MBTH derivatization, HPLC). The conditions noted are these: for conversion of substrate to ketone product: 100 μg cell free extract, 10 mM substrate, 0.1 mM PLP, pH 7.8, 37° C. overnight; for product yield / activity compared among substrates: same conditions, comparison between substrate isomers. It counts as biochemical, Erwinia carotovora subsp. atroseptica. On the procedure: 2-Butanone can also be detected by derivatization with 3-methyl-2-benzothiazolinone hydrazone (MBTH). An aqueous solution containing 2-butanone is mixed with an equal volume of an aqueous solution of 6 mg/mL MBTH in 375 mM glycine-HCl (pH 2.7) and incubated at 100° C. for 3 min. The resulting MBTH-derivatized samples are analyzed on a 25 cm×4.6 mm (id) Supelosil LC-18-D5 5 μm column (Supelco) using a mobile phase of 55% acetonitrile in water at a flow rate of 1 mL/min. The 2-butanone derivative appears as two peaks (cis and trans isomers) with retention times of approximately 12.3 and 13.3 min and absorbance maxima of 230 and 307 nm.
The activity of the amino alcohol O-phosphate lyase towards the aminobutanol O-phosphate substrates was studied under the same conditions as described above. The reaction was carried out at 37° C. overnight in a 1 mL reaction that contained 100 μg of cell free extract of E. coli TOP10/pBAD.KA-AT, 10 mM aminobutanol O-phosphate (either the mixture of (R,R)+(S,S) or the mixture of (R,S) +(S,R) isomers described in Example 15) in 100 mM Tris-HCI, pH 7.8, with 0.1 mM PLP. An aliquot of 100 μL reaction mixture was removed and the 2-butanone product was detected using the MBTH derivatization method described in the General Methods. […] Therefore the Erwinia amino alcohol O-phosphate lyase is an aminobutanol phosphate phospho-lyase in addition to an aminopropanol phosphate phospho-lyase.
The activity of the Erwinia amino alcohol O-phosphate lyase towards various stereoisomers of aminopropanol O-phosphate and aminobutanol O-phosphate was studied under the same conditions as described above. […] Both propanone and butanone products were derivatized by MBTH, and detected by HPLC as described in General Methods.

The test system of test [2] is Klebsiella pneumoniae glycerol dehydratase. Nature of the test: glycerol dehydratase butanediol dehydratase activity. It is filed as biochemical. The conditions noted are these: crude cell free extract of KLP23/pSYCO12, 80 mM HEPES pH 8.2, 37° C., 12 μM coenzyme B12, 10 mM substrate. The source says:
Glycerol dehydratase (E.C. 4.2.1.30) and diol dehydratase (E.C. 4.2.1.28), while structurally related, are often distinguished in the art based on various differences that include substrate specificity. […] The recombinant E. coli strain KLP23/pSYCO1 2, comprising Klebsiella pneumoniae genes encoding the multiple subunits of glycerol dehydratase (alpha: SEQ ID NO:145 (coding region) and 146 (protein); beta: SEQ ID NO: 147 (coding region) and 148 (protein); and gamma: SEQ ID NO: 149 (coding region) and 150 (protein)) and Klebsiella pneumoniae genes encoding the multiple subunits of glycerol dehydratase reactivase (large subunit, SEQ ID NO: 151 (coding region) and 152 (protein); and small subunit, SEQ ID NO: 153 (coding region) and 154 (protein)), is described in Emptage et al. U.S. Pat. No. 6,514,733 and in WO 2003089621, which are herein incorporated by reference. A crude, cell free extract of KLP23/pSYCO12 was prepared by methods known to one skilled in the art. […] The formation of 2-butanone was monitored by HPLC (Shodex SH-1011 column and SH-G guard column with refractive index detection; 0.01 M H2SO4 as the mobile phase at a flow rate of 0.5 mL/min and a column temperature of 50° C.; 2-butanone retention time=40.2 min). The rate of 2-butanone formation by the glycerol dehydratase preparation was determined to be 0.4 nmol/min/mg of crude protein.

Test [3] relates to Erwinia amino alcohol O-phosphate lyase. Nature of the test: aminopropanol O-phosphate lyase assay (colorimetric, MBTH). It counts as biochemical, Erwinia carotovora subsp. atroseptica. The conditions noted are these: induced cell free extract 100 μg/mL, 10 mM substrate, 37° C. On the procedure:
The PBAD.KA-AT plasmid was transformed into the E. coli TOP10 strain. A 50 mL culture of TOP10/pBAD.KA-AT strain was grown to mid log phase (OD600=0.6) in LB, 100 μg/mL ampicillin media at 37° C. with shaking at 250 rpm. The culture was induced by addition of L-arabinose to a final concentration of 0.1% (w/v), and it was further incubated at 37° C. for 5 h before harvesting by centrifugation. The cell pellet was resuspended in ice cold 50 mM Tris-HCl, pH 8.0, and disrupted by sonication on ice with a Fischer Sonic Model 300 Dismembrator (Fischer, Pittsburgh, Pa.) at 50% power, repeating four cycles of 30 seconds sonication with 60 seconds rest in-between each cycle. Each sonicated sample was centrifuged (15,000×g, 4 min, 4° C.). Clarified cell free extracts were analyzed for protein expression level and amino alcohol O-phosphate lyase activity.
The aminopropanol O-phosphate lyase assay was performed as described by Jones et al. (1973, Biochem. J. 134:167-182) and G. Gori et al. (1995, Chromatographia 40:336) The formation of propionaldehyde from aminopropanol O-phosphate was assayed calorimetrically with MBTH, which allows the detection of aldehyde formation. The reaction was performed as follows. In a 1 mL reaction, 100 μg cell free extract of E. coli TOP10/pBAD.KA-AT was added to 10 mM DL-1-amino-2-propanol O-phosphate in 100 mM Tris-HCl, pH 7.8, with 0.1 mM PLP. The reaction was incubated at 37° C. for 10 min and 30 min, with an aliquot of 100 μL reaction mixture removed at each time point and mixed with 100 μL of 6 mg/mL MBTH in 375 mM glycine-HCl, pH 2.7. This mixture was incubated at 100° C. for 3 min, cooled on ice for 15-30 s, and 1 mL of 3.3 mg/mL FeCl3.6H2O (in 10 mM HCl) was added, followed by incubation for 30 min at room temperature. The absorbance of the reaction mixture which contains the aldehyde-MBTH adduct, was measured at 670 nm. In the presence of the aminopropanol phosphate substrate, PLP and cell free extract, formation of aldehyde was detected, as indicated by an Abs670 that was higher than the control background of up to 0.3. In the absence of either the substrate or the cell free extract, no aldehyde formation was detected. In the absence of added PLP, somewhat less amount aldehyde was detected, presumably due to the presence of PLP in the cell free extract.

Test [4] relates to Vibrio Fluvialis APT (alanine:acetoin aminotransferase). Nature of the test: kinetic resolution of 3-amino-2-butanol isomers with the alanine:acetoin aminotransferase. It counts as biochemical, Vibrio Fluvialis JS17. The conditions noted are these: 10 mM pyruvate, 10 mM 1:1 isomer mixture, 0.28 mg enzyme, pH 9.0, 24 h room temperature. On the procedure: An analytical method for detection of 3-amino-2-butanol was developed based on the o-phthaldialdehyde derivatization method for amino acid determination reported by Roth [Anal. Chem. 43:880 (1971)]. A 200 μL aliquot of 1 mM 3-amino-2-butanol (mixture of isomers) was mixed with 200 μL of a 50 mM solution of borate (pH 9.5), to which was added 10 μL of 5 μL/mL 2-mercaptoethanol in ethanol and 10 μL of 10 mg/mL o-phthaldialdehdye in ethanol. The solution was incubated at room temperature for 10 min, at which time the derivative was extracted into 200 μL hexane. The hexane was separated from the aqueous solution by decanting, and 10 μL were injected onto a Chiracel OD HPLC column (Daicel Chemical Industries; Fort Lee, N.J.). The column was run isocratically with a mobile phase of 90:10 hexane:isopropanol at a rate of 1 mL/min. The derivatized isomers of 3-amino-2-butanol were detected by absorbance at 340 nm with retention times of approximately 15.7 and 16.8 min [(2S,3S) and (2R,3R)], and 18.4 and 21.9 min [(2R,3S) and (2S,3R)]. […] After 24 h at room temperature, an aliquot was removed and analyzed as described above. […] After 3 h, samples were taken from the reaction and analyzed as described above for acetoin and butanediol. […]

In test [5] the test system is B12-independent diol dehydratase from Clostridium glycolicum. The conditions noted are these: cited from earlier work.

Bounds are passed on as bounds.

Take “(2R,3S)-3-amino-2-butanol O-phosphate and (2S,3R)-3-amino-2-butanol O-phosphate [mixture of (R,S) +(S,R) isomers]”: in test [1], the “conversion of substrate to ketone product” value (“conversion of substrate” below) is “two peaks representing the derivatized 2-butanone isomers were observed” and the “product yield / activity compared among substrates” value is given as “higher product yield”.

Consider `C[C@@H](N)COP(=O)(O)O` [(R)-2-amino-1-propanol O-phosphate], for which, in test [1], the “conversion of substrate” value was “converted to propanone”.

For the molecule `CC(O)C(C)O` (stereo not drawn) [meso-2,3-butanediol], the “rate of 2-butanone formation” value in test [2] was 0.4 nmol/min/mg of crude protein.

For `C[C@@H](N)[C@@H](C)OP(=O)(O)O` (mixture of isomers) [mixture of (R,R)+(S,S), (R,R)-3-amino-2-butanol O-phosphate], the “conversion of substrate” value in test [1] is “two peaks representing the derivatized 2-butanone isomers were observed”.

As for `CC(CN)OP(=O)(O)O` (racemic) [Aminopropanol O-phosphate, DL-1-amino-2-propanol O-phosphate], the “OD670, 10 min” value in test [3] (PLP (+)) is 1.229; in test [3] (PLP (−)), 0.855. The “OD670, 30 min” value in test [3] (PLP (+)) stood at 2.264; in test [3] (PLP (−)), 1.454. Further, the “product yield / activity compared among substrates” value in test [1] was “highest activity”.

Consider `C[C@H](O)[C@@H](C)N` [(2S,3R) isomer, (2S,3R)-3-amino-2-butanol], for which, in test [4], the peak retained is above 90%.

For the molecule `C[C@H](N)[C@@H](C)O` [(2R,3S) isomer, (2R,3S)-3-amino-2-butanol], the peak depleted in test [4] came out at 95%.

In the case of `CC(O)C(C)O` (stereo not drawn) [2,3-butanediol], the “activity relative to the activity towards ethanediol” value in test [5] is on record as “less than 1%”.

In the case of `C[C@H](N)COP(=O)(O)O` [(S)-2-amino-1-propanol O-phosphate], in test [1], the “conversion of substrate” value is reported as “converted to propanone” and the “product yield / activity compared among substrates” value is “much higher”.
